Measured values from US11834430B2, “Compounds useful as inhibitors of isoprenylcysteine carboxyl methyltransferase” (AGENCY FOR SCIENCE, TECHNOLOGY AND RESEARCH, priority 2017, dated 2023).
“And” between values parts separate entries of the source, which are not always exact repeats. Identical values can stand only once.

Legend:
[1] = system: Prelamin A in MIAPaCa-2 cells; test: Prelamin A accumulation assay (Western blot); format: cell-based; conditions: various concentrations, 48 hours
Description: The MIAPaCa-2 cells were seeded in 6-well plates. After seeding for 24 hours, the cells were treated with either DMSO or varying concentration of the compound and incubated for 48 hours. The cells were trypsinized and the lysate was extracted with RIPA buffer (Santa Cruz). The total protein concentration of lysate is quantified using the standard Bradford assay (Biorad protein assay, microplate standard assay).
Western blot analysis was performed using antibody against Prelamin A in MIAPaCa cells treated with compound at various concentration for 48 hours. 15.0 μg of cell lysate was run on a SDS-PAGE and then transferred to nitrocellulose membrane. The membrane was then incubated in blocking buffer [PBS (phosphate buffered saline) with 0.1% Tween 20 and 5% dry milk] at room temperature for 1 hour, followed by incubation with Prelamin A antibody (rat monoclonal antibody) at 1:2500 dilution in PBS, 0.1% Tween 20 and 5% dry milk overnight at 4° C., followed by three washes (15 minutes each wash) in PBS, 0.1% Tween 20 on the next day.
The nitrocellulose membrane was then incubated with secondary antibody solution at room temperature for 1 hour, washed three times before developed with enhanced Chemiluminescence (ECL) mixture (Amersham, Aylesbury, United Kingdom), incubated for 5 minutes and exposed using Fluor Chem E System instrument (Protein Simple).

[2] = system: MIAPaCa-2 cells; test: Cell proliferation assay (CellTiter-Glo); format: cell-based; conditions: Homo sapiens, MIA PaCa-2, 72 h, 3 days
Description: Cell proliferation assay was performed using CellTiter-Glo Luminescent Cell Viability Assay (Promega) following manufacturer's instructions. The MIAPaCa-2 cells (ATCC) were treated with compounds that were serial diluted in the media (DMEM). Plates were incubated for 3 days at 37° C. in 5% CO2. After 3 days, an equal volume of Cell Titer Glo reagent was added. Plates were rocked on a rotator for 2 hours. 100 μL of each well was transferred to a 96-well opaque plate, and luminescence emitted was measured with the Tecan Safire II.

[3] = molecular target: human ICMT (Homo sapiens (Human), UniProt O60725); test: ICMT biochemical assay (Methyltransferase-Glo); conditions: ICMT membrane extract from Sf-9 cells; 30 min preincubation, 90 min reaction
Chain of human ICMT (O60725 whole entry): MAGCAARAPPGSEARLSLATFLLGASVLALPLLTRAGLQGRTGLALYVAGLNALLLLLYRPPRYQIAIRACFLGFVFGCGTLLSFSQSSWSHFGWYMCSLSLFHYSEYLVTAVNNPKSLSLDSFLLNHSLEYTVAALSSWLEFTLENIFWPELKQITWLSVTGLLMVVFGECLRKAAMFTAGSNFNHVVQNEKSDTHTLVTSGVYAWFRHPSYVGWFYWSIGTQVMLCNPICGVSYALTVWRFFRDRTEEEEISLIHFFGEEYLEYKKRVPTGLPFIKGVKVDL

GI50 [2]: 12700 nM
IC50 [3]: 44 nM and 41 nM
Compound: Cn1nccc1-c1cc(OCCOc2ccc(C#N)cn2)ccn1 [Compound 71, 6-(2-((2-(1-methyl-1H-pyrazol-5-yl)pyridin-4-yl)oxy)ethoxy)nicotinonitrile]
Prelamin A accumulation (Western blot) [1]: Prelamin A accumulation
